Measurements from US20260027087A1, “DOSING REGIMENS COMPRISING A KAT6 INHIBITOR FOR THE TREATMENT OF CANCER” (PFIZER INC., priority 2022, published 2026).
Values joined by “and” are separate entries in the source; they are usually repeats but may differ in a detail not shown here. Equal values may be shown once.

System: locally advanced or metastatic selected solid tumors (ER+HER2− breast cancer, CRPC, or NSCLC)
Assay: Phase 1 clinical trial: clinical efficacy (tumor response)
Assay type: in vivo, human
Conditions: for confirmed and durable partial responses (PR): ER+/HER2− breast cancer; for confirmed and durable partial responses, response-evaluable pts with ER+/HER2− mBC: progressed on prior ET+CDK4/6 inhibitor
Excerpt: The patients in this trial are intolerant of or resistant to standard therapy.
Study Design: The overall study design is depicted in FIG. 1. The study contains two parts, a dose escalation (Part 1) followed by a dose expansion (Part 2). Not shown in FIG. 1 are Part 1D and Part 2D, which are additional arms in Part 1 and Part 2 in the study design and are described below.
Part 1A (Monotherapy Dose Escalation) contains dose escalation as monotherapy in patients with locally advanced or metastatic ER+HER2− breast cancer, CRPC, or NSCLC that is resistant or intolerant to standard therapy or for whom no standard therapy is available, to determine the maximum tolerated dose (MTD) and select the RDE. […] A 2-parameter Bayesian Logistic Regression Model (BLRM) was used for dose finding.
Part 1B (Combination Dose Escalation), COMPOUND A in combination with fulvestrant was evaluated for dose finding in patients with locally advanced or metastatic ER+HER2− breast cancer (2L+) who progressed after at least one line of treatment with an endocrine therapy and a CDK4/6 inhibitor to determine the MTD and RDE for this combination. Combination RDE may be different from monotherapy RDE due to potential toxicity overlap. A 5-parameter BLRM was used for dose finding.

[1] = Parts 1A + 1B, of the 10 with SD

COc1ccccc1S(=O)(=O)Nc1noc2cc(Cn3cccn3)cc(OC)c12 [COMPOUND A, 2-Methoxy-N-{4-methoxy-6-[(1H-pyrazol-1-yl)methyl]-1,2-benzoxazol-3-yl}benzene-1-sulfonamide]
Duration of response (DOR) (1 patient in Part 1A): 19.4 months | Duration of response (DOR) (2 patients in Part 1B (one value per patient)): 8.1 months and 10 months | clinical efficacy (31 participants treated, cut-off 23 Mar. 2022): early signs of clinical efficacy | confirmed and durable partial responses (PR) (Part 1A (8 mg monotherapy)): 1 patients | confirmed and durable partial responses, response-evaluable pts with ER+/HER2− mBC (Part 1A (monotherapy)): ⅛ | confirmed and durable partial responses, response-evaluable pts with ER+/HER2− mBC (Part 1B (5 mg QD + fulvestrant)): 2/4 | confirmed and durable partial responses (PR) (Part 1B (5 mg QD/fulvestrant 500 mg)): 2 patients | Stable disease (SD), patients with CRPC [1]: 4 | Stable disease (SD), patients with ER+/HER2− breast cancer [1]: 5 | Stable disease (SD), patients with NSCLC [1]: 1 | confirmed and durable partial responses (PR) (among response-evaluable patients (n=22)): 3 patients | clinical responses in heavily treated patients with ER+HER2− breast cancer (as of 30 Sep. 2022): confirmed and durable clinical responses were observed | patients with SD lasting ≥6 months (as of 30 Sep. 2022): Three | efficacy in ER+HER2− breast cancer patients (during dose escalation, as of 23 Mar. 2022): signs of efficacy | duration of SD (patient with CRPC, 5 mg QD): 9.1 months | duration of SD (patient with CRPC, 15 mg QD): 11.3 months | duration of SD (patient with ER+/HER2− breast cancer, 8 mg QD): 7.5 months
